For experiment [1], the system named is Nucleic Acid. Briefly: Binding affinity to Escherichia coli phiX174 RF1 DNA poly-d(G-C)2 fragment assessed as DNA unwinding in presence of topoisomerase 1 after 30 mins by electrophoresis. Format: nucleic-acid assay.
The test system of experiment [2] is Nucleic Acid. The experiment in a line: Binding affinity to Escherichia coli phiX174 RF1 DNA poly GC fragment assessed as DNA unwinding in presence of topoisomerase 1 after 30 mins by electrophoresis. Format: nucleic-acid assay.
The subject of another experiment is HeLa. The experiment in a line: Cytotoxicity against human HeLa cells after 20 hrs by MTS assay. Format: functional, cell-based. A general note: Formazan colour is commonly taken as a measure of viable cells.
A further experiment concerns A549. The experiment in a line: Cytotoxicity against human A549 cells after 20 hrs by SRB assay. The format is functional, cell-based. The following applies: A549, 20 h.
In a further experiment the test system is MOLT-3. Briefly: Cytotoxicity against human MOLT3 cells after 20 hrs by MTS assay. Format: functional, cell-based. To be noted: MOLT-3, 20 h.
The next experiment concerns THP-1. Briefly: Cytotoxicity against human THP1 cells after 20 hrs by MTS assay. The following applies: THP-1, 20 h. Format: functional, cell-based.
The subject of a further experiment is U-937. The experiment in a line: Cytotoxicity against human U937 cells after 20 hrs by MTS assay. To be noted: U-937, 20 h. Format: functional, cell-based.
The test system of another experiment is Vero. Briefly: Cytotoxicity against african green monkey Vero cells after 20 hrs by MTS assay. Format: cell-based. The following applies: Chlorocebus sabaeus.

Activity calls are given as the source filed them. The rule behind the calls is not given here.

As for `OC[C@@H]1C[C@H](c2ccc3ccc4cccc5ccc2c3c45)N(Cc2ccccc2O)O1`, the result in the experiment on Nucleic Acid [1] was Active.
`OC[C@@H]1C[C@H](c2ccc3ccc4cccc5ccc2c3c45)N(Cc2ccccc2O)O1` (racemic) [listing 1 of 2 here]: the outcome with Nucleic Acid [2] was Active.
On to `OC[C@@H]1C[C@H](c2ccc3ccc4cccc5ccc2c3c45)N(Cc2ccccc2O)O1` (racemic) [listing 2 of 2 here], for which the IC50 (in general, the concentration at which inhibition is half-maximal) in the experiment with HeLa was 4 µM; in the experiment on A549 it was 2 µM; with MOLT-3, 5 µM; with THP-1, 7 µM; in the experiment on U-937, 32 µM; in the experiment with Vero, 37 µM.
As for `OC[C@H]1C[C@H](c2ccc3ccc4cccc5ccc2c3c45)N(Cc2ccccc2O)O1` (racemic), the IC50 was 11 µM in the experiment with HeLa; 9 µM in the experiment on A549; 13 µM in the experiment with MOLT-3; 15 µM in the experiment with THP-1; 88 µM with U-937; 103 µM in the experiment on Vero.
